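Each compound was tested at five concentrations against cells in 96-well plates for 48 hours. The concentration for 50% growth inhibition is given as GI50.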 The source made the active and inactive calls. Rule as the data show it: active = GI50 up to about 1.1 µM and inactive = higher.

This is an account of results in ChEMBL document CHEMBL1201862, “PubChem BioAssay data set” (2004).

Some test systems named below: TK-10; RPMI-8226; PC-3; SNB-75; T47D; HL-60; SK-OV-3; NCI-H522; IGROV-1; SF-268; CAKI-1; UACC-62; COLO 205; NCI-H226; HCT-15; K562; MDA-MB-231; HCT-116.
Experiment in all cases: NCI tumour cell line growth inhibition, 48 h

For `c1ccc(CCCCNCc2cc(CNCCCCc3ccccc3)cc(CNCCCCc3ccccc3)c2)cc1`, the GI50 with TK-10 was 1.82 µM (inactive); in the assay on RPMI-8226, 0.16 µM (active); in the assay on PC-3, 1.41 µM (inactive); with SNB-75, 1.66 µM (inactive); in the assay with T47D it was 1.79 µM (inactive); in the assay with HL-60, 0.226 µM (active). Besides, the GI50 is 1.97 µM (inactive) with SK-OV-3; 0.667 µM (active) with NCI-H522; 0.815 µM (active) in the assay on IGROV-1; 1.53 µM (inactive) with SF-268; 1.86 µM (inactive) in the assay with CAKI-1; 1.76 µM (inactive) in the assay on UACC-62. Besides, the GI50 is 0.366 µM (active) in the assay on COLO 205; 2.6 µM (inactive) in the assay on NCI-H226; 0.586 µM in the assay on HCT-15; 0.272 µM (active) in the assay on K562; 1.61 µM (inactive) in the assay with MDA-MB-231; 1.97 µM (inactive) in the assay with HCT-116.

Regarding `COc1ccc2c(C)cc(N/N=C/c3ccc(C)s3)nc2c1`, the GI50 is 19 µM (inactive) in the assay with TK-10; 3.55 µM (inactive) with RPMI-8226; 14.1 µM (inactive) in the assay on PC-3; 20.9 µM (inactive) in the assay with SNB-75; 6.53 µM (inactive) with T47D; 7.05 µM (inactive) in the assay with HL-60. Besides, the GI50 is 17 µM (inactive) in the assay with SK-OV-3; 3.45 µM (inactive) in the assay on NCI-H522; 7.82 µM (inactive) with IGROV-1; 25.8 µM (inactive) in the assay on SF-268; 13.5 µM (inactive) in the assay on CAKI-1; 20.1 µM (inactive) with UACC-62. For the same compound, the GI50 in the assay on COLO 205 is 2.81 µM (inactive); with NCI-H226, 13 µM (inactive); in the assay with HCT-15, 4.21 µM; in the assay on K562, 3.61 µM (inactive); in the assay on MDA-MB-231, 6.49 µM (inactive); in the assay on HCT-116, 5.92 µM (inactive).

Take `O=C(/C=C/c1cccc(Br)c1)N1CCN(CCOC(c2ccccc2)c2ccccc2)CC1`: the GI50 in the assay with TK-10 is > 100 µM (inactive); in the assay with RPMI-8226, 12.2 µM (inactive); in the assay on PC-3, 44.1 µM (inactive); with SNB-75, 26.2 µM (inactive); in the assay on T47D it was 23.6 µM (inactive); in the assay with HL-60, 17.4 µM (inactive). The GI50 in the assay with SK-OV-3 is > 100 µM (inactive); in the assay on NCI-H522 it was 29.1 µM (inactive); with IGROV-1, 81.7 µM (inactive); in the assay with SF-268 it was > 100 µM (inactive); in the assay with CAKI-1, > 100 µM (inactive); with UACC-62, 25.9 µM (inactive). Further, the GI50 was 17.5 µM (inactive) in the assay on COLO 205; 45 µM (inactive) in the assay on NCI-H226; 27.6 µM with HCT-15; 13 µM (inactive) in the assay with K562; > 100 µM (inactive) in the assay on MDA-MB-231; 29.3 µM (inactive) in the assay with HCT-116.

With `C=CCOC(=O)N1[C@H]2C#C/C=C\C#C[C@]3(O)C(=O)C[C@H](C)[C@]24O[C@]43C2=CC(=O)C=CC21OC` (stereo partly drawn), the GI50 with TK-10 was 18.4 µM (inactive); in the assay on RPMI-8226 it was 21.2 µM (inactive); in the assay on PC-3, 30.6 µM (inactive); in the assay on SNB-75 it was 35.2 µM (inactive); in the assay on T47D, 64.9 µM (inactive); in the assay with HL-60, 30.8 µM (inactive). Also, the GI50 was 60.1 µM (inactive) with SK-OV-3; 18.6 µM (inactive) in the assay on NCI-H522; 16.7 µM (inactive) in the assay with IGROV-1; 50.6 µM (inactive) with SF-268; 33.1 µM (inactive) in the assay on CAKI-1; 31.2 µM (inactive) in the assay with UACC-62. In addition, the GI50 in the assay on COLO 205 was 13.6 µM (inactive); in the assay with NCI-H226, 30.5 µM (inactive); in the assay with HCT-15, 31.4 µM; in the assay with K562, 42.2 µM (inactive); in the assay on MDA-MB-231, 28.3 µM (inactive); in the assay with HCT-116 it was 19.8 µM (inactive).

Take `C=CN1CCN(c2ccccc2)P1(=O)Oc1ccccc1` (stereo not drawn): the GI50 with TK-10 was 39.9 µM (inactive); with RPMI-8226 it was > 100 µM (inactive); in the assay on PC-3 it was 31.3 µM (inactive); with SNB-75, 16.4 µM (inactive); in the assay with T47D, 63.7 µM (inactive); in the assay with HL-60, > 100 µM (inactive). For the same compound, the GI50 was > 100 µM (inactive) with SK-OV-3; 31.6 µM (inactive) in the assay with NCI-H522; 53.7 µM (inactive) with IGROV-1; > 100 µM (inactive) in the assay with SF-268; > 100 µM (inactive) in the assay with CAKI-1; 53.1 µM (inactive) in the assay with UACC-62. Besides, the GI50 in the assay with COLO 205 was > 100 µM (inactive); with NCI-H226, 65.2 µM (inactive); in the assay with HCT-15 it was above 100 µM; with K562 it was > 100 µM (inactive); in the assay on MDA-MB-231, 55.6 µM (inactive); with HCT-116, 48 µM (inactive).

Regarding `Cc1cccc2sc(NC(=O)c3cc([N+](=O)[O-])ccc3Cl)nc12`, the GI50 with TK-10 was 2.59 µM (inactive); with RPMI-8226, 3.31 µM (inactive); in the assay on PC-3 it was 4.14 µM (inactive); in the assay on SNB-75, 1 µM (active); with T47D, 4.35 µM (inactive); in the assay on HL-60, 72.9 µM (inactive). Further, the GI50 was 13.1 µM (inactive) in the assay on SK-OV-3; 1.78 µM (inactive) with NCI-H522; 2.68 µM (inactive) with IGROV-1; 3.13 µM (inactive) in the assay with SF-268; 3.85 µM (inactive) in the assay on CAKI-1; 3.61 µM (inactive) in the assay on UACC-62. In addition, the GI50 is 5.96 µM (inactive) with COLO 205; 5.71 µM (inactive) in the assay with NCI-H226; 1.91 µM with HCT-15; > 100 µM (inactive) in the assay with K562; 4.73 µM (inactive) in the assay on MDA-MB-231; 2.55 µM (inactive) with HCT-116.

Regarding `C/C=C(\C)CC/C=C/CO[Si](C)(C)C(C)(C)C`, the GI50 is > 100 µM (inactive) in the assay on TK-10; > 100 µM (inactive) with RPMI-8226; > 100 µM (inactive) with PC-3; > 100 µM (inactive) in the assay on SNB-75; > 100 µM (inactive) in the assay on T47D; 32.6 µM (inactive) with HL-60. The GI50 in the assay with SK-OV-3, with NCI-H522, in the assay on IGROV-1, in the assay on SF-268, in the assay with CAKI-1 and with UACC-62 was > 100 µM (inactive) in each case. The GI50 in the assay with COLO 205 was > 100 µM (inactive); with NCI-H226, > 100 µM (inactive); with HCT-15, above 100 µM; in the assay on K562, > 100 µM (inactive); in the assay on MDA-MB-231 it was > 100 µM (inactive); in the assay with HCT-116 it was 46.8 µM (inactive).

In the case of `Cl/C(=C\C=N\c1ccc(I)cc1)c1ccc2ccccc2c1`, the GI50 is 16.4 µM (inactive) with TK-10; 17.3 µM (inactive) in the assay on RPMI-8226; 25.3 µM (inactive) in the assay with PC-3; 28.4 µM (inactive) in the assay on SNB-75; 10.4 µM (inactive) in the assay with T47D; 12.9 µM (inactive) in the assay with HL-60. Also, the GI50 in the assay on SK-OV-3 was 22.5 µM (inactive); in the assay with NCI-H522, 27.2 µM (inactive); in the assay on IGROV-1, 17.9 µM (inactive); in the assay with SF-268, 20.7 µM (inactive); in the assay on CAKI-1, 11.9 µM (inactive); in the assay with UACC-62, 8.83 µM (inactive). The GI50 in the assay on COLO 205 is 16.3 µM (inactive); in the assay with NCI-H226, 20.8 µM (inactive); in the assay with HCT-15 it was 12.6 µM; in the assay on K562, 6.14 µM (inactive); in the assay with MDA-MB-231, 14.5 µM (inactive); in the assay with HCT-116 it was 16.1 µM (inactive).

As for `COC(CC1(CCNc2ccccc2)C(=O)N(COCC[Si](C)(C)C)c2ccccc21)OC` (stereo not drawn), the GI50 with TK-10 is 14.8 µM (inactive); in the assay with RPMI-8226, 7.23 µM (inactive); in the assay on PC-3, 11.8 µM (inactive); in the assay with SNB-75 it was 4.46 µM (inactive); in the assay with T47D, 20.3 µM (inactive); in the assay on HL-60, 4.35 µM (inactive). Further, the GI50 is 15.2 µM (inactive) in the assay with SK-OV-3; 11.9 µM (inactive) in the assay on NCI-H522; 9.66 µM (inactive) in the assay on IGROV-1; 11.6 µM (inactive) in the assay with SF-268; 26.4 µM (inactive) with CAKI-1; 14.5 µM (inactive) with UACC-62. The GI50 with COLO 205 is 2.69 µM (inactive); in the assay on NCI-H226, 6 µM (inactive); in the assay with HCT-15, 16 µM; with K562, 8.41 µM (inactive); with MDA-MB-231, 19.3 µM (inactive); with HCT-116 it was 13.9 µM (inactive).

As to `Nc1ccccc1N/C=C\C(=O)C(Cl)(Cl)Cl`, the GI50 in the assay on TK-10 is 30.6 µM (inactive); in the assay with RPMI-8226, 14.3 µM (inactive); with PC-3, 35.3 µM (inactive); in the assay on SNB-75, 22.6 µM (inactive); with T47D it was 18.6 µM (inactive); in the assay with HL-60, 22.3 µM (inactive). For the same compound, the GI50 is 25.2 µM (inactive) in the assay on SK-OV-3; 20.2 µM (inactive) with NCI-H522; 16.4 µM (inactive) in the assay on IGROV-1; 40.3 µM (inactive) in the assay on SF-268; 19.6 µM (inactive) with CAKI-1; 17.5 µM (inactive) in the assay with UACC-62. Besides, the GI50 with COLO 205 is 22.8 µM (inactive); with NCI-H226, 82.6 µM (inactive); in the assay with HCT-15 it was 19 µM; with K562 it was 17.1 µM (inactive); in the assay on MDA-MB-231 it was 47.1 µM (inactive); in the assay with HCT-116, 16.2 µM (inactive).

As for `O=C1N/C(=N/N=C/C(O)C(O)C(O)C(O)CO)N/C1=C\c1ccco1` (stereo not drawn), the GI50 with TK-10 was > 100 µM (inactive); in the assay on RPMI-8226, > 100 µM (inactive); in the assay on PC-3, 32.3 µM (inactive); with SNB-75, > 100 µM (inactive); in the assay with T47D, > 100 µM (inactive); in the assay on HL-60, > 100 µM (inactive). In addition, the GI50 in the assay with SK-OV-3 is > 100 µM (inactive); in the assay with NCI-H522 it was 81.7 µM (inactive); in the assay on IGROV-1 it was > 100 µM (inactive); in the assay on SF-268, > 100 µM (inactive); in the assay on CAKI-1 it was > 100 µM (inactive); in the assay on UACC-62 it was > 100 µM (inactive). Further, the GI50 was > 100 µM (inactive) with COLO 205; > 100 µM (inactive) in the assay with NCI-H226; above 100 µM in the assay with HCT-15; > 100 µM (inactive) in the assay on K562; > 100 µM (inactive) in the assay on MDA-MB-231; > 100 µM (inactive) in the assay with HCT-116.
